Test systems include COLO 205 colon; HCT-15 colon; HOP-92 NSCLC; K-562 leukemia; NCI-H226 lung; OVCAR-8 ovarian; SK-MEL-2 melanoma; SN12C renal; T-47D breast; IGROV1 ovarian.
Common to all, as to test: NCI-60 cell line screen, 48 h

These results are taken from PubChem BioAssay (NCI).

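Briefly, cells in 96-well plates were exposed to five compound concentrations for 48 h, and endpoints were estimated by linear interpolation. GI50: concentration for 50% inhibition of growth. TGI is the concentration that stops growth completely.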

On to `OC(Cc1ccncc1)C(Cl)(Cl)Cl` (stereo not drawn), for which the GI50 with COLO 205 colon is more than 100 µM; in the assay with HCT-15 colon it was more than 100 µM; in the assay with HOP-92 NSCLC, 0.109 µM; with K-562 leukemia, more than 100 µM; in the assay with NCI-H226 lung it was more than 100 µM; in the assay on OVCAR-8 ovarian, more than 100 µM. Moreover, the GI50 in the assay on SK-MEL-2 melanoma, with SN12C renal and in the assay with T-47D breast was more than 100 µM each time. Moreover, the TGI in the assay on COLO 205 colon, in the assay on HCT-15 colon, in the assay with HOP-92 NSCLC, in the assay on K-562 leukemia, with NCI-H226 lung and in the assay on OVCAR-8 ovarian was more than 100 µM throughout. The TGI in the assay on SK-MEL-2 melanoma, in the assay with SN12C renal and with T-47D breast was more than 100 µM in each case.

As to `CCOC(=O)c1c(C)nc2c(c1N)CC(=O)N2Cc1ccc(OC)cc1`, the GI50 in the assay with COLO 205 colon is more than 100 µM; in the assay with HOP-92 NSCLC, 2.29 µM; in the assay with IGROV1 ovarian, 80.3 µM; with K-562 leukemia, more than 100 µM; in the assay with NCI-H226 lung, 7.36 µM; with OVCAR-8 ovarian, 5.42 µM. Besides, the GI50 was 36.1 µM in the assay on SK-MEL-2 melanoma, more than 100 µM with SN12C renal and 25.9 µM in the assay on T-47D breast. Further, the TGI is more than 100 µM in the assay on COLO 205 colon; 6.5 µM in the assay with HOP-92 NSCLC; more than 100 µM in the assay on IGROV1 ovarian; more than 100 µM in the assay with K-562 leukemia; more than 100 µM in the assay on NCI-H226 lung; more than 100 µM with OVCAR-8 ovarian. Also, the TGI in the assay on SK-MEL-2 melanoma, in the assay with SN12C renal and in the assay on T-47D breast was more than 100 µM each time.

As to `CCN(Cc1cc(Nc2nc(C)cn3c(-c4cn[nH]c4)cnc23)sn1)C(C)(C)CO`, the GI50 in the assay on COLO 205 colon was less than 0.01 µM; in the assay with HCT-15 colon, 0.0746 µM; in the assay with HOP-92 NSCLC it was 0.0119 µM; in the assay with IGROV1 ovarian, 0.0257 µM; with NCI-H226 lung, less than 0.0106 µM; with OVCAR-8 ovarian, 0.0411 µM. The GI50 is 0.0293 µM in the assay on SK-MEL-2 melanoma, 0.0301 µM in the assay with SN12C renal and 0.0689 µM in the assay on T-47D breast. Further, the TGI in the assay on COLO 205 colon came to 0.132 µM; with HCT-15 colon it was 11.4 µM; with HOP-92 NSCLC, 0.0714 µM; in the assay on IGROV1 ovarian, 12.9 µM; in the assay on NCI-H226 lung, 0.513 µM; in the assay with OVCAR-8 ovarian, 11 µM. Moreover, the TGI with SK-MEL-2 melanoma was 7.35 µM; in the assay with SN12C renal, 10.5 µM; with T-47D breast it was 18.5 µM.

Regarding `COc1ccc(C(=S)N2CCN(c3cccc(C)c3)CC2)cc1OC`, the GI50 is 3.88 µM in the assay with COLO 205 colon; 3.77 µM in the assay with HCT-15 colon; 10.5 µM in the assay on HOP-92 NSCLC; 1.2 µM in the assay with K-562 leukemia; more than 100 µM in the assay on NCI-H226 lung; 8.47 µM in the assay on OVCAR-8 ovarian. In addition, the GI50 with SK-MEL-2 melanoma was 47.5 µM; in the assay with SN12C renal, 6.85 µM; in the assay with T-47D breast, 4.33 µM. In addition, the TGI was more than 100 µM with COLO 205 colon; more than 100 µM with HCT-15 colon; 91.4 µM in the assay with HOP-92 NSCLC; more than 100 µM with K-562 leukemia; more than 100 µM in the assay on NCI-H226 lung; more than 100 µM in the assay with OVCAR-8 ovarian. Also, the TGI with SK-MEL-2 melanoma, with SN12C renal and in the assay on T-47D breast was more than 100 µM in each case.

As to `CC1(C)C2CCC13C(=O)C1OC3(C2)C2C(=O)c3cc4ccccc4cc3C(=O)C12` (stereo not drawn), the GI50 with COLO 205 colon is 14.7 µM; with HCT-15 colon, 9.28 µM; in the assay with HOP-92 NSCLC it was 4.19 µM; in the assay with K-562 leukemia, 4.92 µM; in the assay with NCI-H226 lung it was 24.9 µM; in the assay on OVCAR-8 ovarian, 33.8 µM. The figures for the GI50 in the assay with SK-MEL-2 melanoma, in the assay with SN12C renal and in the assay on T-47D breast were 42.2 µM, 19.3 µM and 4.68 µM, respectively. Also, the TGI in the assay on COLO 205 colon was more than 100 µM; with HCT-15 colon, 68.8 µM; in the assay with HOP-92 NSCLC, 27.5 µM; in the assay with K-562 leukemia it was 33.7 µM; in the assay with NCI-H226 lung it was 95.2 µM; with OVCAR-8 ovarian, more than 100 µM. The figures for the TGI in the assay on SK-MEL-2 melanoma, with SN12C renal and in the assay with T-47D breast were more than 100 µM, more than 100 µM and 50.5 µM, respectively.

Consider `C=CCN=c1sc2c(n1NC(=O)c1cc3ccc1CCc1ccc(cc1)CC3)C(=O)c1ccccc1C2=O`, for which the GI50 in the assay with COLO 205 colon was 1.94 µM; in the assay on HCT-15 colon, 1.52 µM; in the assay with HOP-92 NSCLC, 1.56 µM; in the assay with IGROV1 ovarian it was 1.13 µM; with NCI-H226 lung, 1.61 µM; with OVCAR-8 ovarian, 2.13 µM. For the same compound, the GI50 in the assay on SK-MEL-2 melanoma is 1.74 µM; in the assay with SN12C renal it was 1.22 µM; in the assay with T-47D breast it was 2.02 µM. Further, the TGI in the assay with COLO 205 colon was 4.24 µM; in the assay with HCT-15 colon, 3.5 µM; in the assay with HOP-92 NSCLC, 4.19 µM; with IGROV1 ovarian it was 3.21 µM; with NCI-H226 lung, 3.35 µM; in the assay with OVCAR-8 ovarian, 11.2 µM. Further, the TGI in the assay with SK-MEL-2 melanoma was 4.32 µM; in the assay with SN12C renal, 2.79 µM; in the assay on T-47D breast it was 7.29 µM.
